Tested on: 994946-033-R-J1-PDC complex spheroid viability
Experiment: Anticancer human tumor 994946-033-R-J1-PDC patient-derived melanoma cell line growth inhibition [POLQ]
Details: for IC50: curve of first compound; for viability, T/C: stronger effect = lower value
Method in brief: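 PDC + HUVEC + MSC complex spheroids; POLQ inhibitors ± partner drugs; top conc. at/near clinical Cmax, else 10 microM (SN-38 1 microM), half-log dilutions; 37 degrees C, 5% CO2.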

[1] = second compound 0.0316 µM, first compound 0.00316 µM
[2] = second compound 0.0316 µM, first compound 0.01 µM
[3] = second compound 0.0316 µM, first compound 0.0316 µM
[4] = second compound 0.0316 µM, first compound 0.1 µM
[5] = second compound 0.1 µM, first compound 0.00316 µM
[6] = second compound 0.1 µM, first compound 0.01 µM
[7] = second compound 0.1 µM, first compound 0.0316 µM
[8] = second compound 0.1 µM, first compound 0.1 µM
[9] = second compound 0.316 µM, first compound 0.00316 µM
[10] = second compound 0.316 µM, first compound 0.01 µM
[11] = second compound 0.316 µM, first compound 0.0316 µM
[12] = second compound 0.316 µM, first compound 0.1 µM
[13] = second compound 1 µM, first compound 0.00316 µM
[14] = second compound 1 µM, first compound 0.01 µM
[15] = second compound 1 µM, first compound 0.0316 µM
[16] = second compound 1 µM, first compound 0.1 µM
[17] = second compound 3.16 µM, first compound 0.00316 µM
[18] = second compound 3.16 µM, first compound 0.01 µM
[19] = second compound 3.16 µM, first compound 0.0316 µM
[20] = second compound 3.16 µM, first compound 0.1 µM
[21] = second compound 10 µM, first compound 0.00316 µM
[22] = second compound 10 µM, first compound 0.01 µM
[23] = second compound 10 µM, first compound 0.0316 µM
[24] = second compound 10 µM, first compound 0.1 µM
[25] = second compound 0.0316 µM, first compound 0.000316 µM
[26] = second compound 0.0316 µM, first compound 0.001 µM
[27] = second compound 0.1 µM, first compound 0.000316 µM
[28] = second compound 0.1 µM, first compound 0.001 µM
[29] = second compound 0.316 µM, first compound 0.000316 µM
[30] = second compound 0.316 µM, first compound 0.001 µM
[31] = second compound 1 µM, first compound 0.000316 µM
[32] = second compound 1 µM, first compound 0.001 µM
[33] = second compound 3.16 µM, first compound 0.000316 µM
[34] = second compound 3.16 µM, first compound 0.001 µM
[35] = second compound 10 µM, first compound 0.000316 µM
[36] = second compound 10 µM, first compound 0.001 µM
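Note: spheroids exposed to drugs for 7 days.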
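Throughout, for viability, T/C: 100% = DMSO vehicle treated spheroids.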

## COc1cccc(OCCCN)c1-c1cc(Nc2cnc(C#N)cn2)n[nH]1 + Cc1cccc(N(C)C(=O)C2C(O)CCN2c2nc(C)cc(C(F)(F)F)c2C#N)c1
Second compound 0.0316 µM
  IC50: 25.6 nM
Second compound 0.1 µM
  IC50: 14.7 nM
Second compound 0.316 µM
  IC50: 17.7 nM
Second compound 1 µM
  IC50: 9.64 nM
Second compound 3.16 µM
  IC50: 14.3 nM
Second compound 10 µM
  IC50: 79.8 nM
[1]
  viability, T/C: 96%
[2]
  viability, T/C: 93.4%
[3]
  viability, T/C: 40.3%
[4]
  viability, T/C: 22.7%
Second compound 0.0316 µM, first compound 0.316 µM
  viability, T/C: 22%
Second compound 0.0316 µM, first compound 1 µM
  viability, T/C: 17.4%
[5]
  viability, T/C: 99.8%
[6]
  viability, T/C: 60.3%
[7]
  viability, T/C: 29.9%
[8]
  viability, T/C: 19%
Second compound 0.1 µM, first compound 0.316 µM
  viability, T/C: 19.1%
Second compound 0.1 µM, first compound 1 µM
  viability, T/C: 18.6%
[9]
  viability, T/C: 76.6%
[10]
  viability, T/C: 68.5%
[11]
  viability, T/C: 31.3%
[12]
  viability, T/C: 20.1%
Second compound 0.316 µM, first compound 0.316 µM
  viability, T/C: 24.2%
Second compound 0.316 µM, first compound 1 µM
  viability, T/C: 12.4%
[13]
  viability, T/C: 120%
[14]
  viability, T/C: 44.5%
[15]
  viability, T/C: 36.8%
[16]
  viability, T/C: 33.1%
Second compound 1 µM, first compound 0.316 µM
  viability, T/C: 27%
Second compound 1 µM, first compound 1 µM
  viability, T/C: 18.6%
[17]
  viability, T/C: 88.9%
[18]
  viability, T/C: 51%
[19]
  viability, T/C: 46.8%
[20]
  viability, T/C: 18.1%
Second compound 3.16 µM, first compound 0.316 µM
  viability, T/C: 28.9%
Second compound 3.16 µM, first compound 1 µM
  viability, T/C: 18.5%
[21]
  viability, T/C: 68%
[22]
  viability, T/C: 57.6%
[23]
  viability, T/C: 86.7%
[24]
  viability, T/C: 44.9%
Second compound 10 µM, first compound 0.316 µM
  viability, T/C: 38.2%
Second compound 10 µM, first compound 1 µM
  viability, T/C: 23.5%

## CC[C@@]1(O)C(=O)OCc2c1cc1n(c2=O)Cc2cc3c(CN(C)C)c(O)ccc3nc2-1 + Nc1ccc(C#CCN(C(=O)Cc2ncc(C(F)(F)F)cc2C(F)(F)F)c2ccc(F)cc2)nn1
Second compound 0.0316 µM
  IC50: 26.5 nM
Second compound 0.1 µM
  IC50: 29.4 nM
Second compound 0.316 µM
  IC50: 21.4 nM
Second compound 1 µM
  IC50: 22.5 nM
Second compound 3.16 µM
  IC50: 21.5 nM
Second compound 10 µM
  IC50: 30.3 nM
[25]
  viability, T/C: 95.3%
[26]
  viability, T/C: 94.5%
[1]
  viability, T/C: 99.9%
[2]
  viability, T/C: 79%
[3]
  viability, T/C: 45%
[4]
  viability, T/C: 9.6%
[27]
  viability, T/C: 91.7%
[28]
  viability, T/C: 113%
[5]
  viability, T/C: 78.2%
[6]
  viability, T/C: 98.9%
[7]
  viability, T/C: 46.9%
[8]
  viability, T/C: 15.4%
[29]
  viability, T/C: 101%
[30]
  viability, T/C: 109%
[9]
  viability, T/C: 89.9%
[10]
  viability, T/C: 79.5%
[11]
  viability, T/C: 34.6%
[12]
  viability, T/C: 17.1%
[31]
  viability, T/C: 130%
[32]
  viability, T/C: 90.3%
[13]
  viability, T/C: 106%
[14]
  viability, T/C: 87.8%
[15]
  viability, T/C: 33.7%
[16]
  viability, T/C: 11.7%
[33]
  viability, T/C: 92%
[34]
  viability, T/C: 119%
[17]
  viability, T/C: 96.8%
[18]
  viability, T/C: 86.8%
[19]
  viability, T/C: 31.4%
[20]
  viability, T/C: 13.7%
[35]
  viability, T/C: 100%
[36]
  viability, T/C: 113%
[21]
  viability, T/C: 98.5%
[22]
  viability, T/C: 110%
[23]
  viability, T/C: 47.7%
[24]
  viability, T/C: 14.4%

## Cn1ncnc1[C@H]1c2n[nH]c(=O)c3cc(F)cc(c23)N[C@@H]1c1ccc(F)cc1 + Nc1ccc(C#CCN(C(=O)Cc2ncc(C(F)(F)F)cc2C(F)(F)F)c2ccc(F)cc2)nn1
Second compound 0.0316 µM
  IC50: > 100 nM
Second compound 0.1 µM
  IC50: > 100 nM
Second compound 0.316 µM
  IC50: > 100 nM
Second compound 1 µM
  IC50: > 100 nM
Second compound 3.16 µM
  IC50: > 100 nM
Second compound 10 µM
  IC50: > 100 nM
[25]
  viability, T/C: 98.5%
[26]
  viability, T/C: 99.3%
[1]
  viability, T/C: 79.2%
[2]
  viability, T/C: 91.6%
[3]
  viability, T/C: 86.8%
[4]
  viability, T/C: 54.3%
[27]
  viability, T/C: 101%
[28]
  viability, T/C: 71.5%
[5]
  viability, T/C: 69%
[6]
  viability, T/C: 93.8%
[7]
  viability, T/C: 59.2%
[8]
  viability, T/C: 65.9%
[29]
  viability, T/C: 110%
[30]
  viability, T/C: 48.7%
[9]
  viability, T/C: 92.3%
[10]
  viability, T/C: 70.8%
[11]
  viability, T/C: 77.3%
[12]
  viability, T/C: 51%
[31]
  viability, T/C: 65.3%
[32]
  viability, T/C: 93%
[13]
  viability, T/C: 71.5%
[14]
  viability, T/C: 72.4%
[15]
  viability, T/C: 59.2%
[16]
  viability, T/C: 55%
[33]
  viability, T/C: 116%
[34]
  viability, T/C: 69.4%
[17]
  viability, T/C: 74.5%
[18]
  viability, T/C: 62%
[19]
  viability, T/C: 68.6%
[20]
  viability, T/C: 79.7%
[35]
  viability, T/C: 77.7%
[36]
  viability, T/C: 91%
[21]
  viability, T/C: 87.3%
[22]
  viability, T/C: 87%
[23]
  viability, T/C: 67.7%
[24]
  viability, T/C: 57.2%

— PubChem BioAssay AID1963827 (Molecular Pharmacology Branch, DTP, NCI, 2024)
